Data published in patent US11992497B2 (priority 2021, dated 2024).

Tests used:
Assay in all cases: UGT reaction phenotyping, recombinant Supersomes
[1] = biological target: T1, UGT2B7 (Homo sapiens, UniProt P16662); settings: for half-life at 1 µM / microsomal CLint at 1 µM: human, recombinant enzyme, pH 7.4
T1 sequence (P16662 24-529): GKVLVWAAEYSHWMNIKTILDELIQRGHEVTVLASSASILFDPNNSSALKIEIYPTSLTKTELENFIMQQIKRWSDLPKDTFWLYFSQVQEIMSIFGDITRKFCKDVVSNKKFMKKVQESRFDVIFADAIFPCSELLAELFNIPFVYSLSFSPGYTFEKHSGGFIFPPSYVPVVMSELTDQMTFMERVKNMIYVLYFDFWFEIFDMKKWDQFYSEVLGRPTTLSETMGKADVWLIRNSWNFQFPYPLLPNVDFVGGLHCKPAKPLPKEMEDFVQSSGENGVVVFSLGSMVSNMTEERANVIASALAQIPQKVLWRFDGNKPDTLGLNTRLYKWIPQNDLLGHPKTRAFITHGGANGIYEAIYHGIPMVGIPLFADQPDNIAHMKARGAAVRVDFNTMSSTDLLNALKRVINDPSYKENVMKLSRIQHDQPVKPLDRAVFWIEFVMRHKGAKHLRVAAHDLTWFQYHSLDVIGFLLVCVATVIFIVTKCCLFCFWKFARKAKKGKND
Experimental: (§1) Experimental Summary: UGT Reaction Phenotyping (7 Isoforms).
(§2) Experimental Procedure: cDNA expressed human UGT enzyme preparations (Supersomes) supplied by BD Biosciences were obtained and stored at −80° C. prior to use. The specific isoforms were chosen by the performing laboratory based on published guidelines. They are considered the clinically relevant of the UGT isoforms (E. Kasteel et al. Human variability in isoform-specific UDP-glucuronosyltransferases: markers of acute and chronic exposure, polymorphisms and uncertainty factors. Arch Toxicol. 2020; 94(8): 2637-2661)
(§3) Supersomes in 0.1 M Tris buffer pH 7.4, alamethicin (44.6 μg/mL) and test compound (final concentration of 5 μM; final DMSO concentration ≤0.1%) were pre-incubated at 37° C. prior to the addition of UDGPA (final concentration 2 mM) to initiate the reaction. Incubations were also performed using control Supersomes (no UGT enzymes present) to reveal any non-enzymatic degradation. Compounds known to be metabolized specifically by each UGT isoform were used as control compounds (7-hydroxy-4-trifluoromethylcoumarin, all but UGT1A4, or trifluoperazine for UGT1A4).
(§4) CBG or Compound 1 were incubated in duplicate for 0, 10, 20, 40 and 60 min with each isoform. The reactions were stopped by the addition of methanol containing an analytical internal standard at the time points specified in the table above. Stopped reactions were kept on ice for at least ten minutes and the samples were centrifuged to remove precipitated protein. Supernatants were analyzed by LC-MS/MS methodology developed by the performing laboratory to quantitate the parent remaining.
(§5) The change in CBG concentration were used to calculate the Half life (t1/2 in min) and the intrinsic clearance ([…]) as shown in the following table (S. C, Khojasteh et.al., Drug Metabolism and Pharmacokinetics Quick Guide, Springer, NY, 2011), Intrinsic Clearance (CIint) is a measure of the ability of hepatocytes to eliminate drug irrespective other factors such as blood flow or protein binding. The calculations were the same as those used in Example 3A.

[2] = biological target: T2, UGT1A9 (Homo sapiens, UniProt O60656); settings: pH 7.4; for half-life at 1 µM / microsomal CLint at 1 µM: recombinant enzyme
T2 sequence (O60656 26-530): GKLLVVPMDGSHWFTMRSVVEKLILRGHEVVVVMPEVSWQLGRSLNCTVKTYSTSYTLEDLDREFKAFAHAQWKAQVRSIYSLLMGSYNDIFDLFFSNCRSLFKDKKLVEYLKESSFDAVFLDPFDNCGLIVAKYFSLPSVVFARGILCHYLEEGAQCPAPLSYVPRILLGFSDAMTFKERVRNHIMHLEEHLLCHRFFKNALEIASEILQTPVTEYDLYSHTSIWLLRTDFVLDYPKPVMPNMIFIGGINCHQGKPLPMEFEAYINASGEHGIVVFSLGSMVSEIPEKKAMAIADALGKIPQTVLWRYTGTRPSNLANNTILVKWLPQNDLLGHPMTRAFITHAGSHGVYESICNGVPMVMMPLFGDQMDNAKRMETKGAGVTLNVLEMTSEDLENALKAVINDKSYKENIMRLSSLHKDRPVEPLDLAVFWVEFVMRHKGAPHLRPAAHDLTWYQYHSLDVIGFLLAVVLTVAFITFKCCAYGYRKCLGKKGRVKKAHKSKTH
Experimental: as §1, §2, §3, §4, §5

[3] = biological target: T3, UGT1A1 (Homo sapiens, UniProt P22309); settings: recombinant enzyme, pH 7.4
T3 sequence (P22309 26-533): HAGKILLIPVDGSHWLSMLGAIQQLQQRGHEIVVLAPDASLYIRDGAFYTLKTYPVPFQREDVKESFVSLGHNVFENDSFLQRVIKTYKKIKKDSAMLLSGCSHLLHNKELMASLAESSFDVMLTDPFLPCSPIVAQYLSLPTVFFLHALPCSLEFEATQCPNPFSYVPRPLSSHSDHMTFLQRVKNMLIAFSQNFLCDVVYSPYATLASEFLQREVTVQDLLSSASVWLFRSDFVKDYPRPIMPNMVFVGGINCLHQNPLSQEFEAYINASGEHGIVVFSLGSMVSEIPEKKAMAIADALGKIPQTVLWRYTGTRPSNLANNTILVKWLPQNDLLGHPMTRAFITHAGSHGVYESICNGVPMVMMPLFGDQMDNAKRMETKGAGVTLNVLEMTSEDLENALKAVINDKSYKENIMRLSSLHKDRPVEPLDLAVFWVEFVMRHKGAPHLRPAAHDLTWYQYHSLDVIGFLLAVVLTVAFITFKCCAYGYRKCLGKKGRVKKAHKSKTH
Experimental: as §1, §2, §3, §4, §5

Row | SMILES | activity of UGT2B7 relative to UGT1A9 ([1]; CBG as substrate) | half-life at 1 µM [1] | microsomal CLint at 1 µM [1] | share of UGT1A9 in the activity with CBG for all the UGTs combined ([2]; 5 µM) | half-life at 1 µM [2] | microsomal CLint at 1 µM [2] | half-life at 1 µM [3] | microsomal CLint at 1 µM [3]
1 | CCCCCc1cc(O)c(C/C=C(\C)CCC=C(C)C)c(O)c1 [CBG, cannabigerol] | approximately 1/10 | 17.9 min | 77.5 µL/min/mg | ~80% | 1.92 min | 721 µL/min/mg | 77.1 min | 18 µL/min/mg
2 | O=c1cc(C(F)(F)F)c2ccc(O)cc2o1 [7-OH4trifluoromethylcoumarin, 7-hydroxy-4-trifluoromethylcoumarin] |  | 50.4 min | 27.5 µL/min/mg |  | 3.04 min | 456 µL/min/mg | 33.1 min | 41.8 µL/min/mg
3 | CCCCCc1cc(O)c(C/C=C(\C)CCC=C(C)C)c(OC)c1 [Compound 1, (E)-2-(3,7-dimethylocta-2,6-dien-1-yl)-3-methoxy-5-pentylphenol] |  | 24.8 min | 55.9 µL/min/mg |  | 14 min | 99.1 µL/min/mg | 103 min | 13.5 µL/min/mg
